# From US20110118314A1, “PIPERIDINE ANALOGS AS GLYCOGEN SYNTHASE ACTIVATORS” (priority 2009, published 2011)
# Test system: glycogen synthase
# Test: Glycogen Synthase (GS) Assay
# Assay type: biochemical
# Details: for EC50: compound concentration needed to give 50% maximum activation; for GS SC200: compound concentration needed to stimulate 200% of the enzyme activity
# Protocol: The following tests were carried out in order to determine the activity of the compounds of formula (I).
# Twelve μL per well of substrate solution containing glycogen (4.32 mg/mL), 2.67 mM UDP-glucose, 21.6 mM phospho(enol)pyruvate and 2.7 mM NADH in 30 mM glycylglycine, pH 7.3 buffer was added into a polystyrene 384-well assay plate (BD Biosciences).
# Compound solutions (8 μL/well) at various concentrations (0-300 μM) were added to the assay plate (columns 5-24). Compound solution contains 30 mM glycylglycine, pH 7.3, 40 mM KCl, 20 mM MgC12, 9.2% DMSO, with (columns 15-24) or without (columns 5-14) 20 mM glucose 6-phosphate.
# Enzyme solution (12 μL/well) containing glycogen synthase (16.88 μg/mL), pyruvate kinase (0.27 mg/mL), lactate dehydrogenase (0.27 mg/mL) in 50 mM Tris-HCl, pH 8.0, 27 mM DTT and bovine serum albumin (BSA, 0.2 mg/mL) was added to the assay plate (columns 3-24). As a blank control, enzyme solution without glycogen synthase was added into the top half wells of columns 1-2. To the bottom half wells of columns 1-2 were added a known activator, glucose 6-phosphate (at final concentration 5 mM) in addition to the enzyme solution. The reaction mixture was incubated at room temperature. The assay plate was then read for absorbance at 340 nm on an Envision reader every 3 minutes up to a total of 15 minutes.
# The enzyme activity (with or without compound) was calculated by the reaction rate and represented by the optical density change (SOD) per minute. Percent stimulation of glycogen synthase activity by a compound at various concentrations was calculated by the following formula: […]
# where Rs is the reaction rate of the enzyme in the presence of compound and Rt is the reaction rate of the enzyme in the absence of compound.
# SC200 is defined as the compound concentration that is needed to stimulate 200% of the enzyme activity. EC50 is defined as the compound concentration that is needed to give 50% maximum activation.
# Compounds from Example 1 through Example 36 were assayed according to assay procedures described above and the results are listed in Table 1 below: […]
SMILES,EC50,GS SC200
"COc1cc(F)c(F)cc1-c1ccc(OCC2CCCN(C(=O)CC(N)=O)C2)cc1 (stereo not shown) [Example 20, 3-[3-(4′,5′-Difluoro-2′-methoxy-biphenyl-4-yloxymethyl)-piperidin-1-yl]-3-oxo-propionamide]",12.7 µM,6.34 µM
"COc1cc(F)c(F)cc1-c1ccc(OCC2CCN(C(=O)N(CCC(=O)O)Cc3ccccc3)C2)cc1 (stereo not shown) [Example 29, 3-{Benzyl-[3-(4′,5′-difluoro-2′-methoxy-biphenyl-4-yloxymethyl)-pyrrolidine-1-carbonyl]-amino}-propionic acid]",10.4 µM,2.55 µM
"COc1cc(F)c(F)cc1-c1ccc(OCC2CCCN(C(N)=O)C2)cc1 (stereo not shown) [Example 9, 3-(4′,5′-Difluoro-2′-methoxy-biphenyl-4-yloxymethyl)-piperidine-1-carboxylic acid amide]",6.26 µM,2.22 µM
"COc1cc(F)c(F)cc1-c1ccc(OCC2CCCN(C(=O)[C@H]3CCC[C@@H]3C(=O)O)C2)cc1 (stereo in doubt) [Example 7, 2-[3-(4′,5′-Difluoro-2′-methoxy-biphenyl-4-yloxymethyl)-piperidine-1-carbonyl]-cyclopentanecarboxylic acid]",6.28 µM,1.55 µM
"COc1cc(F)c(F)cc1-c1ccc(OCC2CCN(C(=O)N(C)CC(=O)O)C2)cc1 (stereo not shown) [Example 26, {[3-(4′,5′-Difluoro-2′-methoxy-biphenyl-4-yloxymethyl)-pyrrolidine-1-carbonyl]-methyl-amino}-acetic acid]",24.7 µM,5.97 µM
"CONC(=O)CC(=O)N1CCCC(COc2ccc(-c3cc(F)c(F)cc3OC)cc2)C1 (stereo not shown) [Example 5, 3-[3-(4′,5′-Difluoro-2′-methoxy-biphenyl-4-yloxymethyl)-piperidin-1-yl]-N-methoxy-3-oxo-propionamide]",6.42 µM,0.99 µM
"COc1cc(F)c(F)cc1-c1ccc(OCC2CCN(C(=O)N(C)CC(=O)NS(C)(=O)=O)C2)cc1 (stereo not shown) [Example 36, 3-(4′,5′-Difluoro-2′-methoxy-biphenyl-4-yloxymethyl)-pyrrolidine-1-carboxylic acid (2-methanesulfonylamino-2-oxo-ethyl)-methyl-amide]",7.68 µM,0.8 µM
"COc1cc(F)c(F)cc1-c1ccc(OCC2CCCN(C(=O)N(C)Cc3nnn[nH]3)C2)cc1 (stereo not shown) [Example 30, 3-(4′,5′-Difluoro-2′-methoxy-biphenyl-4-yloxymethyl)-piperidine-1-carboxylic acid methyl-(1H-tetrazol-5-ylmethyl)-amide]",8.29 µM,1.38 µM
"COc1cc(F)c(F)cc1-c1ccc(OCC2CCCN(C(=O)[C@H](C)CC(=O)O)C2)cc1 (stereo partly drawn) [Example 8, (R)(+)-4-[3-(4′,5′-Difluoro-2′-methoxy-biphenyl-4-yloxymethyl)-piperidin-1-yl]-3-methyl-4-oxo-butyric acid]",8.03 µM,2.35 µM
"COc1cc(F)c(F)cc1-c1ccc(OCC2CCCN(C(=O)C3CN(C(N)=O)CC3C(=O)O)C2)cc1 (stereo not shown) [Example 16, 1-Carbamoyl-4-[3-(4′,5′-difluoro-2′-methoxy-biphenyl-4-yloxymethyl)-piperidine-1-carbonyl]-pyrrolidine-3-carboxylic acid]",6.48 µM,0.42 µM
"COc1cc(F)c(F)cc1-c1ccc(OCC2CCCN(C(=O)N(CCC(=O)O)Cc3ccccc3)C2)cc1 (stereo not shown) [Example 28, 3-{Benzyl-[3-(4′,5′-difluoro-2′-methoxy-biphenyl-4-yloxymethyl)-piperidine-1-carbonyl]-amino}-propionic acid]",6.29 µM,2.52 µM
"COc1cc(F)c(F)cc1-c1ccc(OCC2CCCN(C(=O)C3CCS(=O)(=O)N3)C2)cc1 (stereo not shown) [Example 21, [3-(4′,5′-Difluoro-2′-methoxy-biphenyl-4-yloxymethyl)-piperidin-1-yl]-(1,1-dioxido-3-isothiazolidin-3-yl)-methanone]",7.3 µM,

# Stronger by EC50, values ahead:
EC50,SMILES,GS SC200
1.93 µM,"COc1cc(F)c(F)cc1-c1ccc(OCC2CCCN(C(=O)[C@@H](CC(=O)O)NC(C)=O)C2)cc1 (stereo partly drawn) [Example 11, (R)-3-Acetylamino-4-[3-(4′,5′-difluoro-2′-methoxy-biphenyl-4-yloxymethyl)-piperidin-1-yl]-4-oxo-butyric acid]",0.42 µM
3.72 µM,"COc1cc(F)c(F)cc1-c1ccc(OCC2CCCN(C(=O)C3CN(C(=O)OC(C)(C)C)CC3C(=O)O)C2)cc1 (stereo not shown) [Example 14, 4-[3-(4′,5′-Difluoro-2′-methoxy-biphenyl-4-yloxymethyl)-piperidine-1-carbonyl]-pyrrolidine-1,3-dicarboxylic acid 1-tert-butyl ester]",1.94 µM
1.29 µM,"COc1cc(F)c(F)cc1-c1ccc(OCC2CCCN(C(=O)N3CCC[C@H]3C(=O)O)C2)cc1 (stereo partly drawn) [Example 27, (S)-1-[3-(4′,5′-Difluoro-2′-methoxy-biphenyl-4-yloxymethyl)-piperidine-1-carbonyl]-pyrrolidine-2-carboxylic acid]",0.22 µM
5.78 µM,"COc1cc(F)c(F)cc1-c1ccc(OCC2CCCN(C(=O)C3CN(C(C)=O)CC3C(=O)O)C2)cc1 (stereo not shown) [Example 15, 1-Acetyl-4-[3-(4′,5′-difluoro-2′-methoxy-biphenyl-4-yloxymethyl)-piperidine-1-carbonyl]-pyrrolidine-3-carboxylic acid]",3.65 µM
4.76 µM,"COc1cc(F)c(F)cc1-c1ccc(OC[C@H]2CCCN(C(=O)N(CC(=O)O)Cc3ccccc3)C2)cc1 (single isomer, unassigned) [Example 24]",1.99 µM
2.65 µM,"COc1cc(F)c(F)cc1-c1ccc(OCC2CCCN(C(=O)N(CC(=O)O)Cc3ccccc3)C2)cc1 (stereo not shown) [Example 22, {Benzyl-[3-(4′,5′-difluoro-2′-methoxy-biphenyl-4-yloxymethyl)-piperidine-1-carbonyl]-amino}-acetic acid]",0.12 µM
3.4 µM,"COc1cc(F)c(F)cc1-c1ccc(OCC2CCCN(C(=O)C3(C(=O)O)CC3)C2)cc1 (stereo not shown) [Example 1, 1-[3-(4′,5′-Difluoro-2′-methoxy-biphenyl-4-yloxymethyl)-piperidine-1-carbonyl]-cyclopropanecarboxylic acid]",1.1 µM
5.54 µM,"COc1cc(F)c(F)cc1-c1ccc(OCC2CCCN(C(=O)CC(=O)NO)C2)cc1 (stereo not shown) [Example 6, 3-[3-(4′,5′-Difluoro-2′-methoxy-biphenyl-4-yloxymethyl)-piperidin-1-yl]-N-hydroxy-3-oxo-propionamide]",2.37 µM
0.98 µM,"CCC(C(=O)O)C(=O)N1CCCC(COc2ccc(-c3cc(F)c(F)cc3OC)cc2)C1 (stereo not shown) [Example 18, 2-[3-(4′,5′-Difluoro-2′-methoxy-biphenyl-4-yloxymethyl)-piperidine-1-carbonyl]-butyric acid]",
0.29 µM,"COc1cc(F)c(F)cc1-c1ccc(OCC2CCCN(C(=O)N(C)CC(=O)O)C2)cc1 (stereo not shown) [Example 25, {[3-(4′,5′-Difluoro-2′-methoxy-biphenyl-4-yloxymethyl)-piperidine-1-carbonyl]-methyl-amino}-acetic acid]",0.02 µM
0.51 µM,"COc1cc(F)c(F)cc1-c1ccc(OCC2CCCN(C(=O)CC(=O)O)C2)cc1 (stereo not shown) [Example 2, 3-[3-(4′,5′-Difluoro-2′-methoxy-biphenyl-4-yloxymethyl)-piperidin-1-yl]-3-oxo-propionic acid]",0.05 µM
0.68 µM,"COc1cc(F)c(F)cc1-c1ccc(OCC2CCCN(C(=O)C(C)C(=O)O)C2)cc1 (stereo not shown) [Example 17, 3-[3-(4′,5′-Difluoro-2′-methoxy-biphenyl-4-yloxymethyl)-piperidin-1-yl]-2-methyl-3-oxo-propionic acid]",0.29 µM
5.35 µM,"COc1cc(F)c(F)cc1-c1ccc(OCC2CCCN(C(=O)C(C(=O)O)C(C)(C)C)C2)cc1 (stereo not shown) [Example 19, 2-[3-(4′,5′-Difluoro-2′-methoxy-biphenyl-4-yloxymethyl)-piperidine-1-carbonyl]-3,3-dimethyl-butyric acid]",2.21 µM
0.82 µM,"COc1cc(F)c(F)cc1-c1ccc(OCC2CCN(C(=O)N(CC(=O)NS(C)(=O)=O)Cc3ccccc3)C2)cc1 (stereo not shown) [Example 35, 3-(4′,5′-Difluoro-2′-methoxy-biphenyl-4-yloxymethyl)-pyrrolidine-1-carboxylic acid benzyl-(2-methanesulfonylamino-2-oxo-ethyl)-amide]",0.28 µM
0.2 µM,"COc1cc(F)c(F)cc1-c1ccc(OC[C@H]2CCCN(C(=O)N(C)CC(=O)NS(C)(=O)=O)C2)cc1 [Example 32, (S)-3-(4′,5′-Difluoro-2′-methoxy-biphenyl-4-yloxymethyl)-piperidine-1-carboxylic acid (2-methanesulfonylamino-2-oxo-ethyl)-methyl-amide]",0.06 µM
